The results in this text go back to US11236111B2, “Hepatitis B antiviral agents” (Enanta Pharmaceuticals, Inc., priority 2019, dated 2022).

One data set has as its system HBV. In words: HepAD38 anti-HBV assay: reduction of viral product accumulation (virion DNA by qPCR, HBsAg or HBeAg by ELISA). It counts as cell-based. Particulars: Hepatitis B virus, 120 h, HepAD38 cells, harvest five days after compound addition, 50% reduction of viral product vs no drug controls. On the procedure:
Methods: HepAD38 cells are maintained as previously reported (Ladner et al, Antimicrob. Agents Chemother. 1997, […], 1715). Briefly, cells are passaged upon attaining confluency in DMEM/F12 media in the presence of 10% FBS, Penn/Strep, 250 μg/mL G418, and 1 μg/ml tetracycline. Novel compounds are screened by first washing cells three times with PBS to remove tetracycline, and plating in 96 well plates at 35,000 cells/well. Compounds dissolved in DMSO are then diluted 1:200 into wells containing cells. Five days after compound addition, material is harvested for analysis. For an extended 8 day analysis, cells are plated and treated as described above, but media and compound are refreshed on d2 and d5 post initial treatment.
On harvest day, virion DNA is obtained by lysing with Sidestep Lysis and Stabilization Buffer and then quantified via quantitative real time PCR. Commercially available ELISA kits are used to quantitate the viral proteins HBsAg (Alpco) or HbeAg (US Biological) by following the manufacturer's recommended protocol after diluting samples to match the linear range of their respective assays. Irrespective of readout, compound concentrations that reduce viral product accumulation in the cell lysates or supernatants by 50% relative to no drug controls (EC50) are reported; EC50 ranges are as follows: A<0.1 μM; B 0.1-0.4 μM; C>0.4 μM.
(In qPCR the cycle at which signal appears reflects the starting amount.)

Data set [1] in a line: Compound toxicity, total ATP levels (ATPLite). It is filed as cell-based. Particulars: human, HepG2 cells; three days after compound addition; 50% reduction of total ATP vs no drug controls. On the procedure:
Compound toxicity is evaluated by seeding cells at 15,000 cells/well and treating with compound as described above.
Background: In ATP-based viability assays light output follows the ATP content of the culture.

The term EC50 denotes the midpoint of the concentration-response curve. By CC50 is commonly meant the concentration that lowers cell viability or growth by half. A lower CC50 goes with greater toxicity to the cells.

The structures appear in SMILES notation.

As to `O=C1N[C@@]2(CO1)CC1=C(c3ccn(C(F)F)n3)[C@@H](c3ccc(Cl)c(F)c3)N=C(c3nccs3)N1C2` [Example 8], the EC50 with HBV (given as numeric bound) is above 100 nM.
For `C=CCN1CC2(CC3=C(c4ccn(C(F)F)n4)[C@H](c4ccc(F)cc4Cl)N=C(c4nccs4)N3C2)OC1=O` (stereo partly shown) [Example 2], the EC50 with HBV (class symbols) is above 400 nM.
The same measure, in the same setting: to `C#CCN1CC2(CC3=C(c4ccn(C(F)F)n4)[C@H](c4ccc(F)cc4Cl)N=C(c4nccs4)N3C2)OC1=O` (stereo partly shown) [Example 1] belongs above 400 nM.
For the compound `O=C1N[C@@]2(CO1)CC1=C(c3ccn(C(F)F)n3)[C@@H](c3ccc(Cl)c(F)c3)N=C(c3ccccn3)N1C2` [Example 18], the EC50 in the data set with HBV (given as numeric bound) was above 100 nM.
On to `COC(=O)C1=C2C[C@@]3(COC(=O)N3)CN2C(c2nccs2)=N[C@H]1c1ccc(Cl)c(F)c1` [Example 11], for which the EC50 in the data set on HBV (class symbols) is below 100 nM.
`O=C1N[C@@]2(CO1)CC1=C(c3cnn(C(F)F)c3)[C@@H](c3ccc(Cl)c(F)c3)N=C(c3nccs3)N1C2` [Example 10] displayed an EC50 in the data set with HBV (given as numeric bound) above 100 nM.
Compound `C=CCN1C[C@]2(CC3=C(c4ccn(C(F)F)n4)[C@H](c4ccc(F)cc4Cl)N=C(c4nccs4)N3C2)NC1=O` [Example 5] displayed an EC50 in the data set with HBV (class symbols) of 100 to 400 nM.
Consider `O=C1N[C@@]2(CO1)CC1=C(c3ccn(C(F)F)n3)[C@H](c3ccc(Cl)c(F)c3)N=C(c3nccs3)N1C2` [Example 7], for which, in the data set with HBV (class symbols), the EC50 was below 100 nM. Also, the CC50 at 3 days in data set [1] was above 25000 nM.
The like results for `O=C1N[C@]2(CO1)CC1=C(c3ccn(C(F)F)n3)[C@H](c3ccc(Cl)c(F)c3)N=C(c3nccs3)N1C2` [Example 13] were, in that order, below 100 nM and above 25000 nM.
For the compound `O=C1N[C@@]2(CO1)CC1=C(c3ccn(C(F)F)n3)[C@H](c3ccc(Cl)c(F)c3)N=C(c3ccccn3)N1C2` [Example 17], the EC50 in the data set with HBV (given as numeric bound) was above 100 nM.
Regarding `COC(=O)C1=C2C[C@@]3(COC(=O)N3)CN2C(c2nccs2)=N[C@@H]1c1ccc(Cl)c(F)c1` [Example 12], the EC50 in the data set on HBV (given as numeric bound) is above 100 nM.
For `O=C1N[C@@]2(CO1)CC1=C(c3cnn(C(F)F)c3)[C@H](c3ccc(Cl)c(F)c3)N=C(c3nccs3)N1C2` [Example 9], the EC50 in the data set on HBV (class symbols) is below 100 nM.
In turn, `O=C1N[C@@]2(CO1)CC1=C(c3cnn(C(F)F)n3)[C@H](c3ccc(F)cc3Cl)N=C(c3nccs3)N1C2` [Example 6] had an EC50 in the data set on HBV (class symbols) below 100 nM. Moreover, in data set [1], the CC50 at 3 days is above 25000 nM.
Consider `C=CCN1C[C@@]2(CC3=C(c4ccn(C(F)F)n4)[C@H](c4ccc(F)cc4Cl)N=C(c4nccs4)N3C2)NC1=O` [Example 4], for which, in the data set on HBV (class symbols), the EC50 was below 100 nM.
As for `O=C1N[C@@]2(CO1)CC1=C(c3ccn(C(F)F)n3)[C@@H](c3ccc(F)c(F)c3)N=C(c3nccs3)N1C2` [Example 16], in the data set on HBV (given as numeric bound), the EC50 was above 100 nM.
In turn, `O=C1OC2(CC3=C(c4ccn(C(F)F)n4)[C@H](c4ccc(F)cc4Cl)N=C(c4nccs4)N3C2)CN1Cc1ccccc1` (stereo partly shown) [Example 3] yielded an EC50 in the data set with HBV (class symbols) above 400 nM.
As to `O=C1N[C@]2(CO1)CC1=C(c3ccn(C(F)F)n3)[C@@H](c3ccc(Cl)c(F)c3)N=C(c3nccs3)N1C2` [Example 14], the EC50 with HBV (given as numeric bound) is above 100 nM.
In the case of `O=C1N[C@@]2(CO1)CC1=C(c3ccn(C(F)F)n3)[C@H](c3ccc(F)c(F)c3)N=C(c3nccs3)N1C2` [Example 15], the EC50 in the data set on HBV (class symbols) was below 100 nM. In data set [1], this compound registered a CC50 at 3 days above 25000 nM.
